This is an account of results in patent US6421455B1, “Method for detecting cancer on skin of humans and mammals and arrangement for performing the method” (Medeikonos AB, priority 1996, dated 2002).

The subject of series [1] is skin cancer (tumours) on skin. The experiment in a line: Imaging fluorescence spectroscopy of skin after topical ALA application. As to conditions: exciting light about 0,5 mW/cm^2, exposing time 2 s. It is filed as in vivo, human. The procedure: (§1) The method according to the invention is carried out in the way that first a water-in-oil emulsion or an oil-in-water emulsion is prepared form a compound called delta amino levulinic acid (ALA) having an ALA concentration of 5-25%. […] This agent which has the formula I is normally produced in the body in the […] and is a building stone for the haemoglobin. [drawing 1]

Series [2] can be described thus: Solubility of ALA in water. Type of series: physicochemical. The following applies: ALA in the form of powder. The method, then: as §1

As to `NCC(=O)CCC(=O)O` [ALA, delta amino levulinic acid], in series [1] (FIG. 1, back of a person), the “average fluorescence level within area B (ALA-treated skin without detected tumours) relative to area A (untreated skin, skin auto fluorescence)” value is 1,9 × and the “fluorescence intensity of white-contoured areas (tumours, areas 1-4) relative to skin auto fluorescence” value is 2,75 ×. Moreover, in series [1] (FIG. 2, breast of a person), the “average fluorescence level in area B (ALA-treated skin without detected tumours) relative to area A (untreated skin, skin auto fluorescence)” value is recorded as 2,0 × and the “fluorescence intensity of white-contoured areas (tumour, area 7) relative to skin auto fluorescence” value was > 2,75 ×. Besides, the solubility in water entry in series [2] was “easily solved in water”.
